Experimental data taken from US20150004637A1, “SYSTEMS AND METHODS FOR IMAGING AT HIGH SPATIAL AND/OR TEMPORAL PRECISION” (President and Fellows of Harvard College, priority 2011, published 2015).
Like-named read-outs stand apart in the source and are kept apart here.

B1: GPR: Green-absorbing proteorhodopsin, light-driven proton pump found in marine bacteria (protein)
chain: TMGKLLLILGSVIALPTFAAGGGDLDASDYTGVSFWLVTAALLASTVFFFVERDRVSAKWKTSLTVSGLVTGIAFWHYMYMRGVWIETGDSPTVFRYIDWLLTVPLLICEFYLILAAATNVAAGLFKKLLVGSLVMLVFGYMGEAGIMNAWPAFIIGCLAWVYMIYELYAGEGKSACNTASPSVQSAYNTMMAIIVFGWAIYPVGYFTGYLMGDGGSALNLNLIYNLADFVNKILFGLIIWNVAVKESSNA
modifications: /note=“Description of Unknown Green-absorbing proteorhodopsin polypeptide from an uncultured marine bacterium”

Columns and labels:
membrane potential = details: literature values, cited from earlier work; for Approx ΔF/F per 100 mV: ΔR/R where comment says ratiometric
[1] = Schiff base pKa and fluorescence of GPR / PROPS; type: physicochemical

Molecule	Approx response time (membrane potential) [ms]	Approx ΔF/F per 100 mV (membrane potential) [%]	pKa of the Schiff Base [1]	pKa of the Schiff Base ([1]; listed as green proteorhodopsin)
CCCCN(CCCC)c1ccc(/C=C/C=C/C=C/c2cc[n+](CCCCS(=O)(=O)[O-])cc2)cc1 [RH237]	<1	11		
CCCCCCCCN(CCCCCCCC)c1ccc2cc(/C=C/c3cc[n+](CCCS(=O)(=O)[O-])cc3)ccc2c1 [di-8-ANEPPS]	<1	10		
CCCCN(CCCC)c1ccc2cc(/C=C/c3cc[n+](CCCS(=O)(=O)[O-])cc3)ccc2c1 [di-4-ANEPPS]	<1	8		
CCCCCN(CCCCC)c1ccc(/C=C/C=C/c2cc[n+](CCCCS(=O)(=O)[O-])cc2)cc1 [RH421]	<1	21		
Flash	2.8 to 85	5.1		
B1			~12	> 12
